Measured values taken from the supplement of paper PMC10307832.

How the values were obtained:
Assay in all cases: relative viability (nuclei count vs DMSO), 5 days (fraction); higher = more cells survive
[1] = compound: O=c1ncccn1[C@@H]1O[C@H](CO)[C@@H](O)[C@H]1O [Zebularine] + O=C(c1cc(Cc2n[nH]c(=O)c3ccccc23)ccc1F)N1CCN(C(=O)C2CC2)CC1 [Olaparib] (partner 8 µM)
In short: (§1)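 For relative viability, nuclei counts in treated wells were divided by those in vehicle wells. Lung cancer cell lines had been pin-tool dosed in 1536-well plates the day after seeding and cultured for 5 days, then fixed and stained in one step (final 0.05% Triton X-100, 1% formaldehyde, 1 ug/ml Hoechst) and imaged at 4×. Doses were one drug alone or a fixed anchor-drug dose plus five library-drug doses (not always all listed) in √10 steps, and values are duplicate-plate medians.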

[2] = compound: CC(C)CCN1c2nc(Nc3cc(F)c(O)c(F)c3)ncc2N(C)C(=O)C1C [BI-D1870] + COc1cc2c(Oc3ccc(NC(=O)C4(C(=O)Nc5ccc(F)cc5)CC4)cc3F)ccnc2cc1OCCCN1CCOCC1 [Foretinib] (partner 0.25 µM)
In short: as §1

[3] = compound: O=c1ncccn1[C@@H]1O[C@H](CO)[C@@H](O)[C@H]1O [Zebularine] + Cc1cc(Nc2cc(N3CCN(C)CC3)nc(Sc3ccc(NC(=O)C4CC4)cc3)n2)n[nH]1 [Tozasertib] (partner 0.1 µM)
In short: as §1

[4] = compound: CC(C)CCN1c2nc(Nc3cc(F)c(O)c(F)c3)ncc2N(C)C(=O)C1C [BI-D1870] + CS(=O)(=O)N1CCN(Cc2cc3nc(-c4cccc5[nH]ncc45)nc(N4CCOCC4)c3s2)CC1 [Pictilisib] (partner 1 µM)
In short: as §1

Row | Cell Line | relative viability ([1]; first compound 1 µM) | relative viability ([1]; first compound 3.162 µM) | relative viability ([1]; first compound 31.62 µM) | relative viability ([1]; first compound 100 µM) | relative viability ([2]; first compound 0.04 µM) | relative viability ([2]; first compound 0.1265 µM) | relative viability ([2]; first compound 0.4 µM) | relative viability ([2]; first compound 1.265 µM) | relative viability ([2]; first compound 4 µM) | relative viability ([3]; first compound 1 µM) | relative viability ([3]; first compound 3.162 µM) | relative viability ([3]; first compound 10 µM) | relative viability ([3]; first compound 31.62 µM) | relative viability ([3]; first compound 100 µM) | relative viability ([4]; first compound 0.04 µM) | relative viability ([4]; first compound 0.1265 µM) | relative viability ([4]; first compound 0.4 µM) | relative viability ([4]; first compound 1.265 µM) | relative viability ([4]; first compound 4 µM) | relative viability ([1]; first compound 10 µM)
1 | NCI-H23 | 0.318 | 0.132 | 0.276 | 0.258 | 1 | 1.03 | 0.986 | 0.83 | 0.781 | 0.36 | 0.382 | 0.234 | 0.462 | 0.284 | 0.625 | 0.445 | 0.433 | 0.421 | 0.26 | 
2 | LCLC-97TM1 | 0.404 | 0.289 | 0.104 | 0.119 | 1.1 | 0.975 | 0.893 | 1.09 | 0.843 | 0.253 | 0.225 | 0.191 | 0.102 | 0.115 | 0.183 | 0.151 | 0.175 | 0.21 | 0.153 | 0.138
3 | EPLC-272H | 0.955 | 0.774 | 0.66 | 0.41 | 0.786 | 0.539 | 0.602 | 0.612 | 0.508 | 0.222 | 0.179 | 0.156 | 0.317 | 0.256 | 0.364 | 0.295 | 0.275 | 0.312 | 0.243 | 
4 | NCI-H1915 | 0.266 | 0.262 | 0.253 | 0.197 | 1.12 | 1.01 | 1.08 | 1.06 | 0.99 | 0.558 | 0.44 |  | 0.533 | 0.385 | 1.08 | 0.914 | 0.907 | 0.897 | 0.671 | 0.243
5 | NCI-H2405 | 0.905 | 0.782 | 0.564 | 0.511 | 1.09 | 0.994 | 1.01 | 1.05 | 0.859 | 0.758 | 0.81 | 0.704 | 0.724 | 0.485 | 0.549 | 0.479 | 0.442 | 0.458 | 0.418 | 0.533
6 | NCI-H322M | 0.544 | 0.673 | 0.581 | 0.555 | 1.06 | 0.805 | 0.868 | 0.87 | 0.696 | 0.494 | 0.486 | 0.372 | 0.47 | 0.465 | 0.579 | 0.526 | 0.411 | 0.526 | 0.475 | 0.597
7 | NCI-H2170 | 0.707 | 0.561 | 0.364 | 0.166 | 1.06 | 0.971 | 1.05 | 0.934 | 0.957 | 0.815 | 0.708 | 0.655 | 0.636 | 0.285 | 0.287 | 0.333 | 0.347 | 0.301 | 0.302 | 0.414
8 | NCI-H1395 | 0.465 | 0.47 | 0.438 | 0.448 | 1.03 | 0.92 | 0.964 | 1.05 | 0.981 | 0.72 | 0.707 | 0.647 | 0.501 | 0.479 | 0.684 | 0.588 | 0.587 | 0.673 | 0.507 | 0.558
9 | NCI-H358 | 0.67 | 0.597 | 0.295 | 0.225 | 0.657 | 0.529 | 0.669 | 0.752 | 0.433 | 0.111 | 0.101 | 0.0883 | 0.108 | 0.0887 | 0.38 | 0.233 | 0.338 | 0.365 | 0.322 | 0.343
10 | NCI-H838 | 0.856 | 0.798 | 0.38 | 0.266 | 1.12 | 1.01 | 1.05 | 1.16 | 1.15 | 0.251 | 0.304 | 0.239 | 0.216 | 0.163 | 0.442 | 0.421 | 0.529 | 0.498 | 0.574 | 0.546
11 | CAL-12T | 0.837 | 0.721 | 0.444 | 0.273 | 1.29 | 0.831 | 1.11 | 1.23 | 0.889 | 0.379 | 0.369 | 0.241 | 0.379 | 0.247 | 0.554 | 0.363 | 0.382 | 0.657 | 0.336 | 0.548
